Where two headings read alike, the source gives them in different places.
Tests used:
[1] = test system: severe falciparum malaria; settings: AQUAMAT, cited from earlier work
[2] = human, in vivo, po; cited from earlier work
[3] = test system: severe falciparum malaria; settings: SEAQUAMAT, cited from earlier work
[4] = Tolerability and safety of multiple intravenous AS doses in healthy volunteers; assay type: in vivo, human
Method: The study was a double blind, ascending multiple doses, alternating group, safety, tolerance, and PK study. Injectable AS daily for three days was administered intravenously to three groups of the subjects using alternating doses of 2, 4, and 8 mg. All eight subjects in each dose group received either the AS (six subjects) or placebo (two subjects) in a pre-randomized manner. The study physician, after verifying the code with a study nurse, would then inject either the drug or placebo into an injection port at the pre-measured dose over about 2 min as a short-term intravenous infusion; the study nurse recorded the time of study drug reconstitution, infusion start and completion of injection. When the injection was completed, the study nurse recorded tolerance of injection to include both inspection of site and subjects’ responses. Subjects were provided a light lunch at approximately 4 hours after dosing. Normal activities, excluding strenuous exercise, were permitted four hours after dosing. […] During the multiple-dose period, samples were collected immediately before morning dose on days 2 and 3 for additional trough values. All the samples were stored at −80 °C until shipment and were then shipped to a bio-analytical GLP laboratory, Midwest Research Institute (MRI), in Kansas City, MO, USA. The human use protocol numbers for the Phase 1 trial are: USUHS #G183RW; WRIAR #1128; and HSRRB #A-13276.

[5] = Pharmacokinetics of artesunate (AS) in plasma after multiple intravenous doses, compartmental analysis (Phase 1b); assay type: in vivo, human; settings: for Total AUCD1-D3: days 1-3; for half-life / AUC(0-inf) / Cmax / clearance / MRT / AUC: iv; for clearance: read-out: CL_obs; for AUC: 2-8 mg/kg iv, read-out: Mean AUC of AS, range over doses
Method: The study was a double blind, ascending multiple doses, alternating group, safety, tolerance, and PK study. […] When the injection was completed, the study nurse recorded tolerance of injection to include both inspection of site and subjects’ responses. Subjects were provided a light lunch at approximately 4 hours after dosing. Normal activities, excluding strenuous exercise, were permitted four hours after dosing. […] During the multiple-dose period, samples were collected immediately before morning dose on days 2 and 3 for additional trough values. All the samples were stored at −80 °C until shipment and were then shipped to a bio-analytical GLP laboratory, Midwest Research Institute (MRI), in Kansas City, MO, USA. The human use protocol numbers for the Phase 1 trial are: USUHS #G183RW; WRIAR #1128; and HSRRB #A-13276.
The analytes were extracted from human plasma with ethyl acetate. […] The reconstituted extracts were analysed on a Micromass Quattro II Mass Spectrometer in the positive ion electrospray ionization (+ESI) mode. […] This method employed a Varian Pursuit C18 column (150 x 2.0 mm, 5-μm particle size) and a gradient elution with the following mobile phases: A: 10 mM ammonium acetate in water with 1% formic acid and B: 10 mM ammonium acetate in acetonitrile with 1% formic acid, for the chromatographic separation.
Calibration standards and QC samples were analysed to evaluate the performance of the assay.
Compartmental (model-dependent) and non-compartment (model-independent) PK analysis are common methods to determine PK parameters, which are acceptable by FDA [21]. In order to compare only the clinically relevant concentrations, the compartmental PK analysis was selected for PK analysis in this study and based on a short-term (2 min) intravenous infusion in accordance with a previous PK evaluation. […] The input of the drug was assumed to follow zero-order kinetics, and elimination from the central compartment occurred with first-order kinetics. Compartmental analysis of concentration-time data for parent drug was performed using the WinNonlin software with an intravenous infusion program. The first-order method with logarithmic transformation of all drug-concentration data was used throughout.
The drug plasma concentrations at the end of an intravenous (IV) infusion (Cmax) were calculated from the corresponding model equations (IV-infusion model, WinNonlin) at the respective time points. The AUC(0-t) (where t = the time point for the last sample on the PK profile in which quantifiable drug was detected) was estimated using linear or linear/log trapezoidal calculations. […] A drug accumulation index was estimated from the AUC values on day 3 (last multiple dose administration) divided by the AUC on day 1 (first multiple dose administration).

[6] = test system: parasitaemia; settings: cited from earlier work
[7] = severe malaria patients, intravenous treatment
[8] = 2, 4, 8 mg/kg iv daily for three days
[9] = human, plasma, 2 mg/kg, Day 1, AS 2 mg/kg iv daily for 3 days, 2 min infusion, mean (CV%), n = 6, CA
[10] = human, plasma, 2 mg/kg, Day 2, AS 2 mg/kg iv daily for 3 days, 2 min infusion, mean (CV%), n = 6, CA
[11] = human, plasma, 2 mg/kg, Day 3, AS 2 mg/kg iv daily for 3 days, 2 min infusion, mean (CV%), n = 6, CA
[12] = human, plasma, 4 mg/kg, Day 1, AS 4 mg/kg iv daily for 3 days, 2 min infusion, mean (CV%), n = 6, CA
[13] = human, plasma, 4 mg/kg, Day 2, AS 4 mg/kg iv daily for 3 days, 2 min infusion, mean (CV%), n = 6, CA
[14] = human, plasma, 4 mg/kg, Day 3, AS 4 mg/kg iv daily for 3 days, 2 min infusion, mean (CV%), n = 6, CA
[15] = human, plasma, 8 mg/kg, Day 1, AS 8 mg/kg iv daily for 3 days, 2 min infusion, mean (CV%), n = 6, CA
[16] = human, plasma, 8 mg/kg, Day 2, AS 8 mg/kg iv daily for 3 days, 2 min infusion, mean (CV%), n = 6, CA
[17] = human, plasma, 8 mg/kg, Day 3, AS 8 mg/kg iv daily for 3 days, 2 min infusion, mean (CV%), n = 6, CA

C[C@H]1[C@H](OC(=O)CCC(=O)O)O[C@@H]2O[C@@]3(C)CC[C@H]4[C@H](C)CC[C@@H]1[C@@]24OO3 [AS, 4-(10’dihydro-artemisinin-oxymethyl) succinate]
mortality rate [1, 7]: 8.5%
reduction of mortality versus quinine [1]: 22.5%
Cmax and AUC on the last dose day as compared to the first day [2]: about one-third to one-seventh
mortality rate [3, 7]: 15%
reduction of mortality versus quinine [3]: 35%
dose dependence of adverse events [4, 8]: no dose-dependent increases in any adverse events
haemodynamic or ECG effects [4, 8]: No deleterious haemodynamic or ECG effects were seen
other laboratory abnormalities [4, 8]: no other clinically significant laboratory abnormalities detected
duration of transient sensation of altered or unusual taste ([4]; associated with higher doses of AS, all cases): less than 30 minutes
tolerability ([4]; daily iv for three days, doses up to 8 mg/kg, healthy volunteers): well tolerated and no serious side effects were observed and safe
reticulocyte count ([4]; peaked four days after dosing, returned to normal by study day 7 in most cases, day 10 in all): dose-related decrease
Tmax ([5]; Day 1, AS 2 mg/kg iv daily for 3 days, 2 min infusion, n = 6, CA): 2 min
Tmax ([5]; Day 1, AS 4 mg/kg iv daily for 3 days, 2 min infusion, n = 6, CA): 2 min
Tmax ([5]; Day 1, AS 8 mg/kg iv daily for 3 days, 2 min infusion, n = 6, CA): 2 min
Tmax ([5]; Day 3, AS 2 mg/kg iv daily for 3 days, 2 min infusion, n = 6, CA): 2 min
Tmax ([5]; Day 3, AS 4 mg/kg iv daily for 3 days, 2 min infusion, n = 6, CA): 2 min
Tmax ([5]; Day 3, AS 8 mg/kg iv daily for 3 days, 2 min infusion, n = 6, CA): 2 min
peak concentrations of AS, range ([5]; all days, 2, 4, 8 mg/kg iv doses): 16,487-74,588 ng/ml
Total AUCD1-D3 ([5]; AS 2 mg/kg iv daily for 3 days, mean (CV%), n = 6): 4731 (40) ng·h/ml
Total AUCD1-D3 ([5]; AS 4 mg/kg iv daily for 3 days, mean (CV%), n = 6): 10787 (17) ng·h/ml
Total AUCD1-D3 ([5]; AS 8 mg/kg iv daily for 3 days, mean (CV%), n = 6): 18606 (45) ng·h/ml
half-life ([5]; human, in vivo, 2 mg/kg, Day 1, AS 2 mg/kg iv daily for 3 days, 2 min infusion, mean (CV%), n = 6, CA, read-out: t1/2 elimination (converted)): 9.6 min
half-life ([5]; human, in vivo, 2 mg/kg, Day 2, AS 2 mg/kg iv daily for 3 days, 2 min infusion, mean (CV%), n = 6, CA, read-out: t1/2 elimination (converted)): 11.4 min
half-life ([5]; human, in vivo, 2 mg/kg, Day 3, AS 2 mg/kg iv daily for 3 days, 2 min infusion, mean (CV%), n = 6, CA, read-out: t1/2 elimination (converted)): 9 min
half-life ([5]; human, in vivo, 4 mg/kg, Day 1, AS 4 mg/kg iv daily for 3 days, 2 min infusion, mean (CV%), n = 6, CA, read-out: t1/2 elimination (converted)): 12.6 min
half-life ([5]; human, in vivo, 4 mg/kg, Day 2, AS 4 mg/kg iv daily for 3 days, 2 min infusion, mean (CV%), n = 6, CA, read-out: t1/2 elimination (converted)): 13.8 min
half-life ([5]; human, in vivo, 4 mg/kg, Day 3, AS 4 mg/kg iv daily for 3 days, 2 min infusion, mean (CV%), n = 6, CA, read-out: t1/2 elimination (converted)): 12 min
half-life ([5]; human, in vivo, 8 mg/kg, Day 1, AS 8 mg/kg iv daily for 3 days, 2 min infusion, mean (CV%), n = 6, CA, read-out: t1/2 elimination (converted)): 12 min
half-life ([5]; human, in vivo, 8 mg/kg, Day 2, AS 8 mg/kg iv daily for 3 days, 2 min infusion, mean (CV%), n = 6, CA, read-out: t1/2 elimination (converted)): 11.4 min
half-life ([5]; human, in vivo, 8 mg/kg, Day 3, AS 8 mg/kg iv daily for 3 days, 2 min infusion, mean (CV%), n = 6, CA, read-out: t1/2 elimination (converted)): 12 min
AUC(0-inf) [5, 9]: 2050 ng·h/mL
Cmax [5, 9]: 28400 ng/mL
clearance [5, 9]: 21.2 mL/min/kg
MRT ([5]; human, plasma, 2 mg/kg, Day 1, AS 2 mg/kg iv daily for 3 days, 2 min infusion, mean (CV%), n = 6, CA, read-out: MRT): 4.8 min
AUC(0-inf) [5, 10]: 1410 ng·h/mL
Cmax [5, 10]: 17900 ng/mL
clearance [5, 10]: 29.5 mL/min/kg
MRT ([5]; human, plasma, 2 mg/kg, Day 2, AS 2 mg/kg iv daily for 3 days, 2 min infusion, mean (CV%), n = 6, CA, read-out: MRT): 4.8 min
AUC(0-inf) [5, 11]: 1270 ng·h/mL
Cmax [5, 11]: 16500 ng/mL
clearance [5, 11]: 27.9 mL/min/kg
MRT ([5]; human, plasma, 2 mg/kg, Day 3, AS 2 mg/kg iv daily for 3 days, 2 min infusion, mean (CV%), n = 6, CA, read-out: MRT): 4.2 min
AUC(0-inf) [5, 12]: 4640 ng·h/mL
Cmax [5, 12]: 40600 ng/mL
clearance [5, 12]: 19.4 mL/min/kg
MRT ([5]; human, plasma, 4 mg/kg, Day 1, AS 4 mg/kg iv daily for 3 days, 2 min infusion, mean (CV%), n = 6, CA, read-out: MRT): 4.8 min
AUC(0-inf) [5, 13]: 2630 ng·h/mL
Cmax [5, 13]: 34400 ng/mL
clearance [5, 13]: 27.3 mL/min/kg
MRT ([5]; human, plasma, 4 mg/kg, Day 2, AS 4 mg/kg iv daily for 3 days, 2 min infusion, mean (CV%), n = 6, CA, read-out: MRT): 4.8 min
AUC(0-inf) [5, 14]: 3520 ng·h/mL
Cmax [5, 14]: 51200 ng/mL
clearance [5, 14]: 23 mL/min/kg
MRT ([5]; human, plasma, 4 mg/kg, Day 3, AS 4 mg/kg iv daily for 3 days, 2 min infusion, mean (CV%), n = 6, CA, read-out: MRT): 4.8 min
AUC(0-inf) [5, 15]: 6020 ng·h/mL
Cmax [5, 15]: 63700 ng/mL
clearance [5, 15]: 27.9 mL/min/kg
MRT ([5]; human, plasma, 8 mg/kg, Day 1, AS 8 mg/kg iv daily for 3 days, 2 min infusion, mean (CV%), n = 6, CA, read-out: MRT): 6 min
AUC(0-inf) [5, 16]: 6670 ng·h/mL
Cmax [5, 16]: 74600 ng/mL
clearance [5, 16]: 26.7 mL/min/kg
MRT ([5]; human, plasma, 8 mg/kg, Day 2, AS 8 mg/kg iv daily for 3 days, 2 min infusion, mean (CV%), n = 6, CA, read-out: MRT): 4.8 min
AUC(0-inf) [5, 17]: 5920 ng·h/mL
Cmax [5, 17]: 67600 ng/mL
clearance [5, 17]: 28.9 mL/min/kg
MRT ([5]; human, plasma, 8 mg/kg, Day 3, AS 8 mg/kg iv daily for 3 days, 2 min infusion, mean (CV%), n = 6, CA, read-out: MRT): 5.4 min
MRT ([5]; human, plasma, 8 mg/kg, range during three days of treatment, 2, 4, 8 mg/kg iv doses, read-out: mean residence time of AS, range): 4.2 to 4.8 min
half-life ([5]; human, plasma, 8 mg/kg, range of means over three days and 2, 4, 8 mg/kg iv doses, read-out: mean elimination half-life of AS, range): 9 to 13.8 min
AUC ([5]; human, plasma, day 1): 2050 to 6020 ng·h/mL
AUC ([5]; human, plasma, day 3): 1270 to 5920 ng·h/mL
Tmax ([5]; human, plasma, Day 2, AS 2 mg/kg iv daily for 3 days, 2 min infusion, n = 6, CA, read-out: Tmax (converted)): 2 min
Tmax ([5]; human, plasma, Day 2, AS 4 mg/kg iv daily for 3 days, 2 min infusion, n = 6, CA, read-out: Tmax (converted)): 2 min
Tmax ([5]; human, plasma, Day 2, AS 8 mg/kg iv daily for 3 days, 2 min infusion, n = 6, CA, read-out: Tmax (converted)): 2 min
mean time for clearance of half the parasitaemia (PC50) ([6]; human, in vivo): 3.18 h
duration of the lag phase of the parasitaemia curve ([6]; intravenous AS, previous clinical trials): 1.92 h
lag time of the parasitaemia curve ([6]; oral AS, previous clinical trials): 2.81 h
